Source: the supplement of paper PMC8967900

How the values were obtained:
Test in all cases: selective drug sensitivity score (sDSS, relative to normal bone marrow) (sDSS (score)); higher = more potent and effective on the cell line relative to normal bone marrow cells
Conditions in all cases: 72 h
COG-LL-402h = test system: COG-LL-402h
MN-60 = test system: MN-60
RCH-ACV = test system: RCH-ACV
MHH-CALL-4 = test system: MHH-CALL-4
COG-LL-394h = test system: COG-LL-394h
MOLT-14 = test system: MOLT-14
REH = test system: REH
KARPAS-45 = test system: KARPAS-45
P30-OHKUBO = test system: P30-OHKUBO
KOPN-8 = test system: KOPN-8
NALL-1 = test system: NALL-1
TANOUE = test system: TANOUE
KASUMI-10 = test system: KASUMI-10
TMD5 = test system: TMD5
SEM cells = test system: SEM cells
NALM-16 = test system: NALM-16
HPB-ALL = test system: HPB-ALL
380 = test system: 380
MHH-CALL-3 = test system: MHH-CALL-3
MHH-CALL-2 = test system: MHH-CALL-2
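Note: ALL cell lines in 384-well plates, five doses spanning 10,000-fold, each plate scaled between vehicle and 100 µmol/L benzalkonium chloride controls, sDSS an adapted area-under-curve metric.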

Row | Structure (SMILES) | selective drug sensitivity score (COG-LL-402h) | selective drug sensitivity score (MN-60) | selective drug sensitivity score (RCH-ACV) | selective drug sensitivity score (MHH-CALL-4) | selective drug sensitivity score (COG-LL-394h) | selective drug sensitivity score (MOLT-14) | selective drug sensitivity score (REH) | selective drug sensitivity score (KARPAS-45) | selective drug sensitivity score (P30-OHKUBO) | selective drug sensitivity score (KOPN-8) | selective drug sensitivity score (NALL-1) | selective drug sensitivity score (TANOUE) | selective drug sensitivity score (KASUMI-10) | selective drug sensitivity score (TMD5) | selective drug sensitivity score (SEM cells) | selective drug sensitivity score (NALM-16) | selective drug sensitivity score (HPB-ALL) | selective drug sensitivity score 380 | selective drug sensitivity score (MHH-CALL-3) | selective drug sensitivity score (MHH-CALL-2)
1 | Clc1ccc(Nc2nnc(Cc3ccncc3)c3ccccc23)cc1 [Vatalanib] (top concentration 10000 nM) | 0 | 0.1 | 0 | 0.1 | 0 | 0 | 0 | 0 | 0 | 0 | 0 | 0 | 0 | 0 | 0 | 0 | 0 | 0 | 0 | 0.1
2 | COc1cc2nccc(Oc3ccc(NC(=O)NC4CC4)c(Cl)c3)c2cc1C(N)=O [Lenvatinib] (top concentration 2500 nM) | 1.56 | -0.24 | 5.36 | -0.24 | 0.26 | -0.14 | -0.24 | 0.16 | -0.14 | 0.86 | -0.24 | -0.24 | 1.86 | 0.66 | 0.36 | -0.24 | -0.24 | 0.06 | -0.24 | 1.46
3 | CC(=O)[C@]1(O)Cc2c(O)c3c(c(O)c2[C@@H](O[C@H]2C[C@H](N)[C@H](O)[C@H](C)O2)C1)C(=O)c1ccccc1C3=O [Idarubicin] (top concentration 1000 nM) | 14.9 | -2.26 | 12.7 | 7.64 | 7.94 | 10.5 | 11.8 | -2.36 | 3.94 | 8.74 | -3.66 | -12.6 | 8.14 | 1.94 | 6.74 | -2.56 | 3.14 | 13.7 | 14.6 | 8.04
4 | CN(C)C(=O)c1cc2cnc(Nc3ccc(N4CCNCC4)cn3)nc2n1C1CCCC1 [Ribociclib] (top concentration 10000 nM) | 4.58 | -1.62 | 8.08 | -1.42 | -2.02 | 1.18 | -0.42 | 0.68 | 6.58 | 1.68 | -1.62 | -2.02 | 0.08 | 0.78 | 2.28 | 1.48 | 2.78 | -2.02 | 3.18 | 3.68
5 | CC[C@@](C)(Nc1ccnc(-c2c[nH]c3ncccc23)n1)C(=O)NCC(F)(F)F [Decernotinib] (top concentration 10000 nM) | -3.94 | -3.94 | -3.14 | -3.94 | -3.94 | -3.94 | -3.94 | -3.94 | -3.94 | -3.94 | -3.94 | -3.94 | -3.84 | -1.74 | -2.74 | -3.94 | -3.94 | 2.56 | -1.94 | -3.94
6 | O=C(c1ccc(OCCN2CCCCC2)cc1)c1c(-c2ccc(O)cc2)sc2cc(O)ccc12 [Raloxifene] (top concentration 10000 nM) | -1.68 | 1.92 | 0.02 | -2.28 | 0.42 | 2.92 | 4.62 | 3.32 | 1.82 | 0.52 | -2.28 | -1.38 | -2.28 | -1.88 | 1.62 | -2.28 | 5.02 | -2.28 | -2.28 | 0.22
7 | O=c1[nH]c(=O)n([C@H]2C[C@H](O)[C@@H](CO)O2)cc1F [Floxuridine] (top concentration 10000 nM) | 28.2 | 10.3 | 39.1 | 22.6 | 3.62 | 27.1 | 25.8 | -1.38 | 37 | 37.3 | 21 | 2.92 | 29.7 | -1.98 | 31.5 | 10.2 | 1.12 | 37.9 | 26.3 | 24.2
8 | CCCCCOC(=O)Nc1nc(=O)n([C@@H]2O[C@H](C)[C@@H](O)[C@H]2O)cc1F [Capecitabine] (top concentration 10000 nM) | -0.06 | -0.06 | -0.06 | 0.04 | -0.06 | -0.06 | -0.06 | -0.06 | -0.06 | -0.06 | -0.06 | -0.06 | -0.06 | -0.06 | 0.04 | -0.06 | 0.64 | -0.06 | -0.06 | 1.04
9 | COc1cc2c(cc1OC(C)C)[C@H](c1ccc(Cl)cc1)N(c1ccc(N(C)C[C@H]3CC[C@H](N4CCN(C)C(=O)C4)CC3)cc1)C(=O)C2 [NVP-CGM097] (top concentration 25000 nM) | 12.1 | -0.44 | 10.6 | 7.06 | 6.56 | 8.36 | 5.16 | -3.94 | 10.2 | 10.4 | -6.34 | -3.04 | 11.7 | 7.86 | -4.84 | -4.54 | -3.14 | 11.4 | 13.1 | 10.8
